Data reported in US5049547A, “Composition for stimulating integumental melanocytes” (University Patents, Inc., priority 1989, dated 1991).
“And” between values parts separate entries of the source, which are not always exact repeats. Equal entries are not always repeated. Where two headings read alike, the source gives them in different places. Non-standard residues stand in square brackets, D forms with d. Residues, ends and D or L forms follow the SMILES beside them. dPhg = N[C@@H](C(=O)O)c1ccccc1; Nle = CCCC[C@H](N)C(=O)O

Legend:
[1] = tested on: frog (Rana pipiens) skin; format: cell-based
Experimental: (§1) Biological effect on in vivo and in vitro melanosome dispersion was examined using the frog (Rana pipiens) and the lizard (Anolis caroliniensis). [Hadley et al., ,Science 213:1025-1027(1981)]; similar examinations were conducted with respect to the duration of its ability to stimulate melanosome dispersion in vitro using the skin bioassay as described in Shimume, Endrochrinology, 54:553-560(1954). The in vitro results are depicted in Table I.

[2] = tested on: lizard (Anolis caroliniensis) skin; test: in vitro lizard skin bioassay, melanosome dispersion; format: cell-based; settings: alpha-MSH = 1.0
Experimental: as §1

[3] = tested on: TA-98 strain of S. typhimurium; test: Ames microbacterial assay; settings: spontaneous revertants subtracted
Experimental: The Ames microbacterial assay was used for these tests which were performed both with and without a microsomal enzyme/NADPH generating system. Briefly, this test measures the number of reverse mutations which occur in special histidine-dependent strains of Salmonella typhimurium. Positives (mutations) are scored as the number of revertant cells which are able to form colonies in a histidine-deficient growth medium after exposure to a mutagenic substance.
All substances were dissolved in sterile 0.9% sodium chloride (without preservatives) to concentrations of 10^-2, 10^-3 and 10^-4 Molar. The TA-98 strain of S. typhimurium was used and experiments were performed with and without exposure to S-9 rat liver microsomal enzymes and an NADPH generating system. This enzyme cocktail can metabolically activate some compounds to mutagenic species. In addition to the melanotropins, doxorybicin (Adriamycin™) was also simultaneously tested. […] It was thus included to act as a positive control. […] For the actual evalution of revertants, the identity of the specific test compounds was blinded.

| Molecule | Relative Potency Frog ([1]; in vitro, alpha-MSH = 1.0) | Relative Potency Lizard [2] | further results |
| --- | --- | --- | --- |
| CC(=O)N[C@@H](CCC(=O)O)C(=O)N[C@@H](Cc1c[nH]cn1)C(=O)N[C@H](Cc1ccccc1)C(=O)N[C@@H](CCCNC(=N)N)C(=O)N[C@@H](Cc1c[nH]c2ccccc12)C(=O)NCC(=O)N[C@@H](CCCCN)C(N)=O [Ac-[D-Phe^7]-alpha-MSH5-11 -NH2] (Ac-EH[dF]RWGK-NH2) | 0.01 |  |  |
| CCCC[C@H](NC(C)=O)C(=O)N[C@@H](CCC(=O)O)C(=O)N[C@@H](Cc1c[nH]cn1)C(=O)N[C@@H](C)C(=O)N[C@@H](CCCNC(=N)N)C(=O)N[C@@H](Cc1c[nH]c2ccccc12)C(=O)NCC(=O)N[C@@H](CCCCN)C(N)=O [Ac-[Nle^4 -Ala^7]-alpha-MSH4-11 -NH2] (Ac-[Nle]EHARWGK-NH2) |  |  | Relative Potency Frog [1]: 0.02 |
| CCCC[C@H](NC(C)=O)C(=O)N[C@@H](CCC(=O)O)C(=O)N[C@@H](Cc1c[nH]cn1)C(=O)N[C@H](C)C(=O)N[C@@H](CCCNC(=N)N)C(=O)N[C@@H](Cc1c[nH]c2ccccc12)C(=O)NCC(=O)N[C@@H](CCCCN)C(N)=O [Ac-[Nle^4 -D-Ala^7]-alpha-MSH4-11 -NH2] (Ac-[Nle]EH[dA]RWGK-NH2) | 0.000080 | 0.020 |  |
| CCCC[C@H](NC(C)=O)C(=O)N[C@@H](CCC(=O)O)C(=O)N[C@@H](Cc1c[nH]cn1)C(=O)N[C@@H](Cc1ccccc1)C(=O)N[C@H](CCCNC(=N)N)C(=O)N[C@@H](Cc1c[nH]c2ccccc12)C(=O)NCC(=O)N[C@@H](CCCCN)C(N)=O [Ac-[Nle^4 -D-Arg^8]-alpha-MSH4-11 -NH2] (Ac-[Nle]EHF[dR]WGK-NH2) | 0.000016 | 0.0022 |  |
| CCCC[C@H](NC(C)=O)C(=O)N[C@@H](CCC(=O)O)C(=O)N[C@@H](Cc1c[nH]cn1)C(=O)N[C@H](Cc1ccccc1)C(=O)N[C@@H](CCCNC(=N)N)C(=O)N[C@H](Cc1c[nH]c2ccccc12)C(N)=O [Ac-[Nle^4 -D-Phe^7 -D-Trp^9]-alpha-MSH4-9 -NH2] (Ac-[Nle]EH[dF]R[dW]-NH2) | 0.03 | 3.8 |  |
| CCCC[C@H](NC(C)=O)C(=O)N[C@@H](CCC(=O)O)C(=O)N[C@@H](Cc1c[nH]cn1)C(=O)N[C@H](Cc1ccccc1)C(=O)N[C@@H](CCCNC(=N)N)C(=O)N[C@@H](Cc1ccccc1)C(=O)NCC(=O)N[C@@H](CCCCN)C(N)=O [Ac-[Nle^4 -D-Phe^7 -Phe^9]-alpha-MSH4-11 -NH2] (Ac-[Nle]EH[dF]RFGK-NH2) | 0.017 |  |  |
| CCCC[C@H](NC(C)=O)C(=O)N[C@@H](CCC(=O)O)C(=O)N[C@@H](Cc1c[nH]cn1)C(=O)N[C@H](Cc1ccccc1)C(=O)N[C@@H](CCCNC(=N)N)C(=O)N[C@@H](Cc1c[nH]c2ccccc12)C(=O)NCC(N)=O [Ac-[Nle^4 -D-Phe^7]-alpha-MSH4-10 -NH2] | 0.02 |  | REVERTANTS PER PLATE WITH S-9 ([3]; 10^-2 M): 0; […] PLATE WITHOUT S-9 ([3]; 10^-2 M): 0; REVERTANTS PER PLATE WITH S-9 ([3]; 10^-3 M): 0; […] PLATE WITHOUT S-9 ([3]; 10^-3 M): 0; REVERTANTS PER PLATE WITH S-9 ([3]; 10^-4 M): 0; […] PLATE WITHOUT S-9 ([3]; 10^-4 M): 0 |
| CCCC[C@H](NC(C)=O)C(=O)N[C@@H](CCC(=O)O)C(=O)N[C@@H](Cc1c[nH]cn1)C(=O)N[C@@H](C(=O)N[C@@H](CCCNC(=N)N)C(=O)N[C@@H](Cc1c[nH]c2ccccc12)C(=O)NCC(=O)N[C@@H](CCCCN)C(N)=O)c1ccccc1 [Ac-[Nle^4 -D-Plg^7]-alpha-MSH4-11 -NH2] (Ac-[Nle]EH[dPhg]RWGK-NH2) | 0.0003 | 0.0005 |  |
| CCCC[C@H](NC(C)=O)C(=O)N[C@@H](CCC(=O)O)C(=O)N[C@@H](Cc1c[nH]cn1)C(=O)N[C@H](Cc1ccc(O)cc1)C(=O)N[C@@H](CCCNC(=N)N)C(=O)N[C@@H](Cc1c[nH]c2ccccc12)C(=O)NCC(=O)N[C@@H](CCCCN)C(N)=O [Ac-[Nle^4 -D-Tyr^7]-alpha-MSH4-11 -NH2] (Ac-[Nle]EH[dY]RWGK-NH2) | 0.0020 and 0.0033 | 1.0 |  |
| CCCC[C@H](NC(C)=O)C(=O)N[C@@H](CCC(=O)O)C(=O)N[C@@H](Cc1ccccc1)C(=O)N[C@H](Cc1ccccc1)C(=O)N[C@@H](CCCNC(=N)N)C(=O)N[C@@H](Cc1c[nH]c2ccccc12)C(=O)NCC(=O)N[C@@H](CCCCN)C(N)=O [Ac-[Nle^4 -Phe^6 -D-Phe^7]-alpha-MSH4-11 -NH2] (Ac-[Nle]EF[dF]RWGK-NH2) | 0.012 |  |  |
| CCCC[C@H](NC(C)=O)C(=O)N[C@@H](CCC(=O)O)C(=O)N[C@@H](Cc1c[nH]cn1)C(=O)N[C@@H](Cc1ccc(O)cc1)C(=O)N[C@@H](CCCNC(=N)N)C(=O)N[C@@H](Cc1c[nH]c2ccccc12)C(=O)NCC(=O)N[C@@H](CCCCN)C(N)=O [Ac-[Nle^4 -Tyr^7]-alpha-MSH4-11 -NH2] (Ac-[Nle]EHYRWGK-NH2) |  | 0.0090 |  |
| CCCC[C@H](NC(C)=O)C(=O)N[C@@H](CCC(=O)O)C(=O)N[C@@H](Cc1c[nH]cn1)C(=O)N[C@@H](Cc1ccccc1)C(=O)N[C@@H](CCCNC(=N)N)C(=O)N[C@@H](Cc1c[nH]c2ccccc12)C(=O)NCC(=O)N[C@@H](CCCCN)C(N)=O [Ac-[Nle^4 ]-alpha-MSH4-11 -NH2] (Ac-[Nle]EHFRWGK-NH2) | 0.0019 |  |  |
| CCCC[C@H](NC(C)=O)C(=O)N[C@@H](CCC(=O)O)C(=O)N[C@@H](Cc1c[nH]cn1)C(=O)N[C@@H](Cc1ccccc1)C(=O)N[C@@H](CCCNC(=N)N)C(=O)N[C@@H](Cc1c[nH]c2ccccc12)C(N)=O [Ac-[Nle^4]-alpha-MSH4-9 -NH2] (Ac-[Nle]EHFRW-NH2) | 0.0007 | 0.18 |  |
| CC(=O)N[C@@H](Cc1ccc(O)cc1)C(=O)N[C@@H](CCC(=O)O)C(=O)N[C@@H](Cc1c[nH]cn1)C(=O)N[C@H](Cc1ccccc1)C(=O)N[C@@H](CCCNC(=N)N)C(=O)N[C@@H](Cc1c[nH]c2ccccc12)C(=O)NCC(=O)N[C@@H](CCCCN)C(N)=O [Ac-[Tyr^4 -D-Phe^7]-alpha-MSH4-11 -NH2] (Ac-YEH[dF]RWGK-NH2) | 0.01 |  |  |
| COc1cccc2c1C(=O)c1c(O)c3c(c(O)c1C2=O)C[C@@](O)(C(=O)CO)C[C@@H]3O[C@H]1C[C@H](N)[C@H](O)[C@H](C)O1 [Adriamycin, Doxorubicin, reference compound] |  |  | […] PLATE WITH S-9 ([3]; 10 µg/ml): 2500; […] PLATE WITHOUT S-9 ([3]; 10 µg/ml): 230; […] PLATE WITH S-9 ([3]; 1.0 g/ml): 100; […] PLATE WITHOUT S-9 ([3]; 1.0 g/ml): 0 |
| Ac-[Nle^4 -D-Phe^7 -D-Arg^8 ]-alpha-MSH4- |  | 0.0022 |  |
| Ac-[Phe-Gly^7 ]-alpha-MSH4-11 -NH2 | 0.10 |  |  |
